Publication PMC12502323, “Discovery of small molecules with anthelmintic potential in the Medicines for Malaria Venture’s COVID and Global Health Priority Boxes using an infrared-based assay for Caenorhabditis elegans motility” (BMC Research Notes, 2025)
Where two headings read alike, the source gives them in different places.

Assays:
Caenorhabditis elegans [1] = test: Primary screen, infrared-based (WMicroTracker ONE) C. elegans L4 motility assay at 40 µM; type: cell-based, Caenorhabditis elegans (Bristol N2); conditions: primary screen at 40 µM; for C. elegans NOTES (HIT): hit if motility < 25%
Method: (§1) Methods to cultivate C. elegans (Bristol N2) and synchronize growth to the L4 stage were as described. WMicroTracker ONE (Phylumtech, Argentina) detects movement by measuring the scattering of infrared light beams that are projected into each well of a microtiter plate (two 880 nm beams/well in a 96w plate).
(§2) Synchronized C. elegans L4 were detached from agar and collected in M9 buffer. Worms were centrifuged for 1 min at 1,900 g and washed in S medium to decrease the concentration of E. coli OP50 that might interfere with infrared detection. Control and assay compounds (1 µL) in DMSO (Fisher Scientific, Cat# BP231-100) were spotted into each well of a clear, flat-bottomed 96-well polystyrene plate (Fisherbrand, Cat# FB012931). DMSO (1%) was used as the negative control. Approximately 70 L4 in 100 µL S medium were added per well. First pass screens employed 40 µM compound, and motility was measured every 20 min for 24 h in the WMicroTracker ONE reader in which the temperature was 25 ± 1 °C. Motility was normalized relative to the DMSO controls. Hits were defined as compounds that decreased motility to ≤ 25% of that in DMSO control worms.

Caenorhabditis elegans [2] = test: Concentration response C. elegans L4 motility assay (WMicroTracker ONE), EC50; type: cell-based, Caenorhabditis elegans (Bristol N2); conditions: Caenorhabditis elegans, read-out: EC50 (motility)
Method: as §1, §2
For potent compounds, concentration response assays (nine concentrations: 0.005 µM to 40 or 100 µM) were conducted to measure the half-maximal effective concentration (EC50). Compounds were serially diluted in DMSO using 96-well, v-bottomed polypropylene dilution plates (ThermoFisher Scientific, Cat#: 249944) and 1 µL aliquots spotted into each well of the assay plates. Motility was measured as described above. Prism GraphPad, Version 8.0 (GraphPad Software, San Diego, CA) was used to calculate EC50 values using a non-linear sigmoidal four parameter logistic curve.

[3] = HEK293 cytotoxicity assay (resazurin); type: cell-based, Human; conditions: human
Method: Potent compounds were also evaluated for cytotoxicity against HEK293 cells. Cells were cultured at 37 °C and 5% in Dulbecco’s Modified Eagle Medium (DMEM; Gibco, Cat#: 11965-092) containing 10% heat-inactivated fetal bovine serum (FBS; Omega Scientific Inc., Cat#: FB02) and 1% penicillin-streptomycin (ThermoFisher Scientific, Cat#: 15140122), and then sub-cultured when 60–80% confluent. Cells were detached with 0.05% trypsin/EDTA (ThermoFisher Scientific, Cat#: 25300054) and centrifuged for 5 min at 1,900 g.
Screens were performed over 11 compound concentrations (0.00007–40 µM) that had been prepared in DMSO. Aliquots (1 µL) were spotted into each well of a clear-bottomed, 96-well, polystyrene assay plate (Fisher Scientific, Cat#: FB012931). Approximately 20,000 HEK293 cells in 99 µL of the above supplemented DMEM were then added to each well. After 46 h at 37 °C and 5% CO2, 20 µL 0.5 mM resazurin (ThermoFisher Scientific, Cat#: B21187.03) were added and the incubation continued for 2 h at 37 °C [27]. Fluorescence was measured in a 2104 EnVision Multilabel Plate Reader (PerkinElmer) at 560 and 590 nm excitation and emission wavelengths, respectively. Raw data were exported from the EnVision Workstation software (version 1.13.3009.1401; PerkinElmer) into Prism GraphPad, and the half-maximal cytotoxic concentration (CC50) values were calculated using a non-linear regression curve.

[4] = C. elegans L4, WMicroTracker ONE
[5] = HEK293 cell viability after 48 h, read-out: CC50

| Compound | C. elegans Mean motility vs. DMSO control (%) (Caenorhabditis elegans [1]; [4]) | C. elegans Mean motility vs. DMSO control (%) (Caenorhabditis elegans [1]; C. elegans L4) | further results |
| --- | --- | --- | --- |
| COc1ccc(Cc2nccc3cc(OC)c(OC)cc23)cc1OC [MMV002798] | 96.9% | – | – |
| CCCCc1oc2ccccc2c1C(=O)c1cc(I)c(OCCN(CC)CC)c(I)c1 [MMV001992] | – | 67.16% | – |
| OC(Cn1cncn1)(Cn1cncn1)c1ccc(F)cc1F [MMV002337] | 103.8% | – | – |
| milbemectin [reference compound] | – | 1.69% | C. elegans NOTES (HIT) (Caenorhabditis elegans [1]): HIT |
| CCn1cnc2c(N3CCC[C@H](c4ccncc4)C3)ncnc21 [MMV1752548] | – | 78.79% | – |
| CN1CCCC1CCO[C@](C)(c1ccccc1)c1ccc(Cl)cc1 (stereo partly drawn) [MMV637229] | 98.88% | – | – |
| COc1cc2c3cc1Oc1c(OC)c(OC)cc4c1C(Cc1ccc(O)c(c1)Oc1ccc(cc1)CC3N(C)CC2)N(C)CC4.Cl (stereo not drawn) [MMV007474] | – | 94.2% | – |
| NS(=O)(=O)c1cc2c(cc1Cl)N=CNS2(=O)=O [MMV001901] | 96.35% | – | – |
| c1ccc(-c2ccnc(C3CCN(CC45CNCC4C5)CC3)n2)cc1 (stereo not drawn) [MMV1797658] | – | 81.14% | – |
| O=C(Nc1cnc2ccccc2c1)c1ccccc1C(=O)c1ccc(F)cc1 [MMV1760745] | – | 93.6% | – |
| CNCc1[cH-]ccc1CNc1ccnc2cc(Cl)ccc12.[Fe+2].c1cc[cH-]c1 [MMV892669] | 102.88% | – | – |
| CC(C)(C)NC(=O)[C@@H]1CN(Cc2cccnc2)CCN1C[C@@H](O)C[C@@H](Cc1ccccc1)C(=O)N[C@H]1c2ccccc2C[C@H]1O [MMV659198] | 103.91% | – | – |
| CCC1=C(c2ccc(C)cc2)S(=O)(=O)N=C1N1CCC(C(=O)NCCN2CCCC[C@@H]2C)CC1 [MMV1704710] | 104.04% | – | – |
| Oc1ccccc1CCN[C@H]1CCc2ccc(F)cc21 [MMV1726212] | – | 87.88% | – |
| Cn1cc(CN2CCc3c(c(C(=O)NCc4nccs4)nn3Cc3ccccc3)C2)c2ccccc21 [MMV1167451] | – | 84.51% | – |
| O[C@@H](c1cc(C(F)(F)F)nc2c(C(F)(F)F)cccc12)[C@H]1CCCCN1 [MMV000016] | 108.37% | – | – |
| eprinomectin [reference compound] | – | 13.19% | C. elegans NOTES (HIT) (Caenorhabditis elegans [1]): HIT |
| Cn1ccnc1SCC(=O)Nc1ccc(C(=O)Nc2ncccc2O)cc1 [MMV1267536] | – | 64.36% | – |
| O=C(Nc1ncccc1O)c1ccc(S(=O)(=O)NCCc2cccs2)cc1 [MMV1435700] | – | 75.25% | – |
| CO[C@H]1C[C@H](O[C@H]2[C@H](C)O[C@@H](O[C@@H]3/C(C)=C/C[C@@H]4C[C@@H](C[C@]5(C=C[C@H](C)[C@@H](C6CCCCC6)O5)O4)OC(=O)[C@@H]4C=C(C)[C@@H](O)[C@H]5OC/C(=C\C=C\[C@@H]3C)[C@]54O)C[C@@H]2OC)O[C@@H](C)[C@@H]1O [doramectin, reference compound] | – | 6.74% | C. elegans NOTES (HIT) (Caenorhabditis elegans [1]): HIT |
| CC(C)(C)NC(=O)N[C@H](C(=O)N1C[C@H]2[C@@H]([C@H]1C(=O)NC(CC1CCC1)C(=O)C(N)=O)C2(C)C)C(C)(C)C (stereo partly drawn) [MMV1580497] | – | 86.33% | – |
| CC[C@@H]([C@H](C)O)n1ncn(-c2ccc(N3CCN(c4ccc(OC[C@@H]5CO[C@@](Cn6cncn6)(c6ccc(F)cc6F)C5)cc4)CC3)cc2)c1=O [MMV688774] | – | 86.8% | – |

| Compound | C. elegans Mean motility vs. DMSO control (%) (Caenorhabditis elegans [1]; [4]) | C. elegans Mean motility vs. DMSO control (%) (Caenorhabditis elegans [1]; C. elegans L4) | further results |
| --- | --- | --- | --- |
| C[C@H](Cn1cnc2c(N)ncnc21)OCP(=O)(O)O [MMV1580478] | – | 95.45% | – |
| CO/N=C1\C[C@]2(C[C@@H]3C[C@@H](C/C=C(\C)C[C@@H](C)/C=C/C=C4\CO[C@@H]5[C@H](O)C(C)=C[C@@H](C(=O)O3)[C@]45O)O2)O[C@H](/C(C)=C/C(C)C)[C@H]1C [moxidectin, reference compound] | – | 0.28% | EC50 (Caenorhabditis elegans [2]; 1 h): 128 ± 45 nM; CC50 at 48 h [3]: 13.3 ± 9.47 µM; C. elegans NOTES (HIT) (Caenorhabditis elegans [1]): HIT |
| CC(=O)Oc1ccccc1C(=O)Nc1ncc([N+](=O)[O-])s1 [MMV688991] | 112.67% | – | – |
| Cc1ccc(NC(=O)c2ccc(CN3CCN(C)CC3)cc2)cc1Nc1nccc(-c2cccnc2)n1 [MMV009948] | 98.37% | – | – |
| Cc1onc(-c2ccccc2)c1-c1ccc(S(N)(=O)=O)cc1 [MMV002260] | – | 95.37% | – |
| O=C(Nc1ncccc1O)c1ccc(N2CCOCC2)nc1 [MMV1103183] | 99.33% | – | – |
| CCC(C)n1ncn(-c2ccc(N3CCN(c4ccc(OCC5COC(Cn6cncn6)(c6ccc(Cl)cc6Cl)O5)cc4)CC3)cc2)c1=O (stereo not drawn) [MMV637528] | 97.65% | – | – |
| O=C(Nc1ncccc1O)c1ccc(Cn2cccn2)cc1 [MMV1266067] | – | 85.15% | – |
| CO[C@@H](C(=O)N1Cc2[nH]nc(NC(=O)c3ccc(N4CCN(C)CC4)cc3)c2C1)c1ccccc1 [MMV676600] | 100.25% | – | – |
| CC(=O)N1CCN(c2ccc(OC[C@@H]3CO[C@@](Cn4ccnc4)(c4ccc(Cl)cc4Cl)O3)cc2)CC1 [MMV637533] | 113.2% | – | – |
| CC[C@@H](C(=O)[C@@H](C)[C@@H](O)[C@H](C)[C@@H]1O[C@@H]([C@@H](CC)C(=O)O)CC[C@@H]1C)[C@H]1O[C@]2(C=C[C@@H](O)[C@]3(CC[C@@](C)([C@H]4CC[C@](O)(CC)[C@H](C)O4)O3)O2)[C@H](C)C[C@@H]1C [MMV1804312] | 96.95% | – | – |
| CCOCn1c(-c2ccc(Cl)cc2)c(C#N)c(Br)c1C(F)(F)F [chlorfenapyr] | – | 0.26% | EC50 (Caenorhabditis elegans [2]; C. elegans L4, after 12 h): 1650 ± 449 nM; CC50 at 48 h [3, 5]: 20.9 ± 7.34 µM; C. elegans NOTES (HIT) (Caenorhabditis elegans [1]): HIT |
| abamectin [reference compound] | – | 3.6% | C. elegans NOTES (HIT) (Caenorhabditis elegans [1]): HIT |
| O=C(NC1CCN(CCOc2ccc(Cl)cc2)CC1)c1c[nH]c2ccncc2c1=O [MMV1798946] | 99.33% | – | – |
| O=C(NC1CCCc2c1[nH]c1ccc(Cl)cc21)c1ccccn1 (stereo not drawn) [MMV690621] | – | 85.65% | – |
| CC(C)C[C@H](NC(=O)[C@@H](NC(=O)c1cccc(-c2ccccc2)n1)[C@@H](C)O)B(O)O [MMV690548] | 97.97% | – | – |
| C[C@@H](c1nc(-c2ccc(C#N)cc2)cs1)[C@](O)(Cn1cncn1)c1ccc(F)cc1F [MMV1634362] | – | 84.55% | – |
| O[C@@H](c1cc(C(F)(F)F)nc2c(C(F)(F)F)cccc12)[C@H]1CCCCN1 [MMV000014] | – | 88.32% | – |
| Cc1ncc([N+](=O)[O-])n1CC(C)O (stereo not drawn) [MMV002287] | – | 78.09% | – |
| CCCOc1ccc(C(F)(F)F)cc1NC(=O)c1nc2nccc(C)n2n1 [MMV1262756] | – | 25.74% | – |
| CO[C@H]1C[C@H](O[C@@H]2/C(C)=C/C[C@@H]3C[C@@H](C[C@]4(CC[C@H](C)[C@@H](C5CCCCC5)O4)O3)OC(=O)[C@@H]3C=C(C)/C(=N/O)[C@H]4OC/C(=C\C=C\[C@@H]2C)[C@]43O)O[C@@H](C)[C@@H]1O [selamectin, reference compound] | – | 2.31% | EC50 (Caenorhabditis elegans [2]; C. elegans L4, after 3 h): 722 ± 555 nM; CC50 at 48 h [3, 5]: 9.88 ± 4.26 µM; C. elegans NOTES (HIT) (Caenorhabditis elegans [1]): HIT |
| CC(C)Oc1ccc(-c2nc(-c3cccc4c3CC[C@@H]4NCCO)no2)cc1C#N [MMV1580492] | – | 83.52% | – |
